In general, MIC refers to the least concentration at which growth counts as inhibited.

The structures appear in SMILES notation. Converted amounts (≈) assume the structure as drawn. Read-outs that look alike come from different tables or passages of the source. Bounds are passed on as bounds.

Common to all, as to format: cell-based
For one assay, the system named is E. coli BW25113. Kind of assay: MIC, microdilution in 96-well plates. The note with it: Escherichia coli, BW25113, B: E. coli BW25113. How it is done:
(§1) A microdilution method in 96-well plates was used and the MIC protocol established by the Clinical Laboratory Standards Institute was followed. From a growing subculture, a 1:10000 inoculum of each strain in Luria-Bertani media was prepared and aliquoted 100 μL in 4 columns of wells, except for the top row wells, which contained 200 μL of inoculum. A solution of gyramide C2 was aliquoted into 3 of the wells containing 200 μL and DMSO was added to the 4th well. The liquid in each of wells was mixed with a multi-channel pipet and 100 μL was transferred to the next well and mixed. The 2-fold dilution was continued down the 96-well plate until 100 μL was left, which was discarded. The plates were incubated at 37° C. with shaking for 16-18 hours. The MIC was determined as the lowest concentration that inhibited growth and had no turbidity by visual inspection.
(§2) Minimum inhibitory concentrations of various gyramide compounds against 20 strains of bacteria were determined using the procedure described above.

The test system of another assay is Edwardsiella tarda. Kind of assay: MIC, microdilution in 96-well plates. The note with it: D: Edwardsiella tarda. Here is the method:
as §1, §2
On the technique in general: Broth dilution looks for growth in wells or tubes with falling amounts of substance.

The next assay relates to E. coli JW5503 (deltolC). Kind of assay: MIC, 20-strain panel. The note with it: Escherichia coli, C: E. coli JW5503 (deltolC). How it is done:
as §1, §2

Another assay relates to E. coli MG1655. The experiment in a line: MIC, 20-strain panel. The note with it: Escherichia coli, MG1655, A: E. coli MG1655. Here is the method:
as §1, §2

The test system of assay [1] is Klebsiella pneumoniae subsp. pneumoniae. The experiment in a line: MIC, 20-strain panel. The note with it: E: Klebsiella pneumoniae subsp. pneumoniae. How it is done: as §1, §2
Assay [2] has as its system Salmonella enterica subsp. enterica typhimurium. The experiment in a line: MIC, 20-strain panel. The note with it: F: Salmonella enterica subsp. enterica Typhimurium. How it is done:
as §1, §2

Another assay has as its system Shigella flexneri. Kind of assay: MIC, 20-strain panel. The note with it: G: Shigella flexneri. How it is done: as §1, §2
In assay [3] the test system is Staphylococcus aureus subsp. aureus. Kind of assay: MIC, 20-strain panel. The note with it: H: Staphylococcus aureus subsp. aureus. Here is the method: as §1, §2
In assay [4] the test system is Staphylococcus epidermidis. The experiment in a line: MIC, 20-strain panel. How it is done:
as §1, §2

Assay [5] has as its system Staphylococcus saprophyticus subsp. saprophyticus. The experiment in a line: MIC, 20-strain panel. Here is the method: as §1, §2
The subject of the next assay is Streptococcus agalactiae. The experiment in a line: MIC, 20-strain panel. How it is done:
as §1, §2

For a further assay, the system named is Streptococcus pyogenes. The experiment in a line: MIC, 20-strain panel. How it is done:
as §1, §2

As for `N#Cc1cccc(S(=O)(=O)N[C@@H]2CCN(Cc3ccc(OCC(F)F)cc3)C2)c1` [Compound 8], the MIC in the assay with E. coli BW25113 (read-out: MIC) was over 8 µg/mL; in the assay with Edwardsiella tarda it was over 8 µg/mL; against E. coli JW5503 (deltolC) it was 2 µg/mL (≈ 4.75 µM); with E. coli MG1655 (read-out: MIC), over 8 µg/mL; in assay [1], over 8 µg/mL; in [2], 8 µg/mL (≈ 19 µM). For the same molecule, the MIC (against Shigella flexneri; in [3] (read-out: MIC); in assay [4]; in [5]; in the assay with Streptococcus agalactiae; in the assay on Streptococcus pyogenes) was over 8 µg/mL each time.
On to `N#Cc1cccc(S(=O)(=O)N[C@@H]2CCN(Cc3ccc4c(c3)OCCO4)C2)c1` [Compound 9], for which the MIC (in the assay with E. coli BW25113 (read-out: MIC); against Edwardsiella tarda; against E. coli JW5503 (deltolC); with E. coli MG1655 (read-out: MIC); in assay [1]; in assay [2]) was over 8 µg/mL each time. Moreover, the MIC (against Shigella flexneri; in [3] (read-out: MIC); in assay [4]; in assay [5]; in the assay on Streptococcus agalactiae; in the assay on Streptococcus pyogenes) was over 8 µg/mL in each case.
`CC(C)Oc1ccc(CN2CC[C@@H](NS(=O)(=O)c3cc(C#N)ccc3Cl)C2)cc1` [Compound 10]: the MIC in the assay on E. coli BW25113 (read-out: MIC) was over 8 µg/mL; with Edwardsiella tarda, over 8 µg/mL; with E. coli JW5503 (deltolC), 0.25 µg/mL (≈ 0.576 µM); in the assay on E. coli MG1655 (read-out: MIC) it was over 8 µg/mL; in assay [1], over 8 µg/mL; in assay [2], 8 µg/mL (≈ 18.4 µM). Further, the MIC (against Shigella flexneri; in assay [3] (read-out: MIC); in assay [4]; in assay [5]; with Streptococcus agalactiae; against Streptococcus pyogenes) was over 8 µg/mL in each case.
As to `N#Cc1ccc(Cl)c(S(=O)(=O)N[C@@H]2CCN(Cc3ccc(-c4ccccc4)cc3)C2)c1` [Compound 11], the MIC is about 8 µg/mL (≈ 17.7 µM) with E. coli BW25113; over 8 µg/mL against Edwardsiella tarda; under 0.062 µg/mL in the assay on E. coli JW5503 (deltolC); over 8 µg/mL in the assay on E. coli MG1655; over 8 µg/mL in assay [1]; 4 µg/mL (≈ 8.85 µM) in [2]. Further, the MIC (in the assay with Shigella flexneri; in [3]; in assay [4]; in assay [5]; against Streptococcus agalactiae; with Streptococcus pyogenes) was over 8 µg/mL each time.
For `N#Cc1cccc(S(=O)(=O)N[C@@H]2CCN(Cc3ccc(-c4nccs4)cc3)C2)c1` [Compound 12], the MIC in the assay on E. coli BW25113 (read-out: MIC) is over 8 µg/mL; against Edwardsiella tarda, over 8 µg/mL; with E. coli JW5503 (deltolC) it was 2 µg/mL (≈ 4.71 µM); in the assay with E. coli MG1655 (read-out: MIC), over 8 µg/mL; in [1], over 8 µg/mL; in assay [2] it was over 8 µg/mL. The MIC (in the assay on Shigella flexneri; in [3] (read-out: MIC); in [4]; in [5]; against Streptococcus agalactiae; with Streptococcus pyogenes) was over 8 µg/mL each time.
As to `CC(C)(C)Oc1ccc(CN2CC[C@@H](NS(=O)(=O)c3cccc(C#N)c3)C2)cc1` [Compound 13], the MIC in the assay with E. coli BW25113 (read-out: MIC) was over 8 µg/mL; in the assay with Edwardsiella tarda it was over 8 µg/mL; with E. coli JW5503 (deltolC), 8 µg/mL (≈ 19.3 µM); in the assay on E. coli MG1655 (read-out: MIC), over 8 µg/mL; in assay [1], over 8 µg/mL; in assay [2], over 8 µg/mL. Besides, the MIC (with Shigella flexneri; in [3] (read-out: MIC); in [4]; in assay [5]; in the assay on Streptococcus agalactiae; against Streptococcus pyogenes) was over 8 µg/mL each time.
For the molecule `O=S(=O)(N[C@@H]1CCN(Cc2ccc(-c3ccncc3)cc2)C1)c1cccc(C(F)(F)F)c1` [Compound 14], the MIC with E. coli BW25113 (read-out: MIC) is over 8 µg/mL; against Edwardsiella tarda, over 8 µg/mL; against E. coli JW5503 (deltolC) it was 2 µg/mL (≈ 4.33 µM); with E. coli MG1655 (read-out: MIC), over 8 µg/mL; in assay [1] it was over 8 µg/mL; in assay [2], over 8 µg/mL. The MIC (against Shigella flexneri; in [3] (read-out: MIC); in assay [4]; in [5]; with Streptococcus agalactiae; in the assay on Streptococcus pyogenes) was over 8 µg/mL each time.
As for `O=S(=O)(N[C@@H]1CCN(Cc2ccc(-c3ccncc3)cc2)C1)c1cccc(OC(F)(F)F)c1` [Compound 15], the MIC in the assay with E. coli BW25113 (read-out: MIC) was over 8 µg/mL; in the assay on Edwardsiella tarda, over 8 µg/mL; with E. coli JW5503 (deltolC) it was 4 µg/mL (≈ 8.38 µM); with E. coli MG1655 (read-out: MIC) it was over 8 µg/mL; in [1], over 8 µg/mL; in [2], over 8 µg/mL. The MIC (in the assay on Shigella flexneri; in [3] (read-out: MIC); in assay [4]; in assay [5]; against Streptococcus agalactiae; in the assay with Streptococcus pyogenes) was over 8 µg/mL throughout.
`O=S(=O)(N[C@@H]1CCN(Cc2ccc(-c3ccccc3)cc2)C1)c1ncc[nH]1` [Compound 16]: the MIC in the assay with E. coli BW25113 (read-out: MIC) is over 8 µg/mL; in the assay on Edwardsiella tarda, over 8 µg/mL; against E. coli JW5503 (deltolC), 2 µg/mL (≈ 5.23 µM); in the assay on E. coli MG1655 (read-out: MIC), over 8 µg/mL; in assay [1], over 8 µg/mL; in assay [2], 8 µg/mL (≈ 20.9 µM). For the same molecule, the MIC (in the assay with Shigella flexneri; in [3] (read-out: MIC); in assay [4]; in assay [5]; with Streptococcus agalactiae; against Streptococcus pyogenes) was over 8 µg/mL throughout.
In the case of `N#Cc1cccc(S(=O)(=O)N[C@@H]2CCN(Cc3ccc(OC(F)(F)F)cc3)C2)c1` [Compound 17], the MIC with E. coli BW25113 (read-out: MIC) is over 8 µg/mL; in the assay on Edwardsiella tarda, over 8 µg/mL; against E. coli JW5503 (deltolC), 8 µg/mL (≈ 18.8 µM); in the assay on E. coli MG1655 (read-out: MIC), over 8 µg/mL; in assay [1], over 8 µg/mL; in assay [2], over 8 µg/mL. Also, the MIC (against Shigella flexneri; in assay [3] (read-out: MIC); in assay [4]; in [5]; in the assay with Streptococcus agalactiae; in the assay on Streptococcus pyogenes) was over 8 µg/mL each time.
`CC(C)Oc1ccc(CN2CC[C@@H](NS(=O)(=O)c3cccc(C(F)(F)F)c3)C2)cc1` [Compound 18]: the MIC with E. coli BW25113 (read-out: MIC) is over 8 µg/mL; against Edwardsiella tarda, over 8 µg/mL; with E. coli JW5503 (deltolC), 0.5 µg/mL (≈ 1.13 µM); with E. coli MG1655 (read-out: MIC), over 8 µg/mL; in assay [1], over 8 µg/mL; in assay [2], 8 µg/mL (≈ 18.1 µM). Also, the MIC (with Shigella flexneri; in [3] (read-out: MIC); in assay [4]; in assay [5]; in the assay on Streptococcus agalactiae; in the assay on Streptococcus pyogenes) was over 8 µg/mL each time.
As for `N#Cc1cc(S(=O)(=O)N[C@@H]2CCN(Cc3ccc(-c4ccccc4)cc3)C2)ccc1F` [Compound 19], the minimal inhibitory concentration (MIC) with E. coli BW25113 (read-out: MIC) is over 8 µg/mL; in the assay on Edwardsiella tarda, over 8 µg/mL; against E. coli JW5503 (deltolC), 0.25 µg/mL (≈ 0.574 µM); in the assay with E. coli MG1655 (read-out: MIC), over 8 µg/mL; in [1] it was over 8 µg/mL; in assay [2] it was 4 µg/mL (≈ 9.18 µM). Also, the MIC (against Shigella flexneri; in assay [3] (read-out: MIC); in assay [4]; in assay [5]; in the assay with Streptococcus agalactiae; with Streptococcus pyogenes) was over 8 µg/mL throughout.
For the molecule `N#Cc1cccc(S(=O)(=O)N[C@@H]2CCN(Cc3ccc(SC(F)(F)F)cc3)C2)c1` [Compound 20], the MIC in the assay with E. coli BW25113 (read-out: MIC) is over 8 µg/mL; against Edwardsiella tarda it was over 8 µg/mL; against E. coli JW5503 (deltolC), 8 µg/mL (≈ 18.1 µM); in the assay with E. coli MG1655 (read-out: MIC) it was over 8 µg/mL; in assay [1] it was over 8 µg/mL; in assay [2], over 8 µg/mL. The MIC (in the assay on Shigella flexneri; in assay [3] (read-out: MIC); in assay [4]; in assay [5]; with Streptococcus agalactiae; against Streptococcus pyogenes) was over 8 µg/mL in each case.
On to `O=S(=O)(N[C@@H]1CCN(Cc2ccc(-n3cccn3)cc2)C1)c1cccc(OC(F)(F)F)c1` [Compound 21], for which the MIC with E. coli BW25113 (read-out: MIC) was over 8 µg/mL; in the assay on Edwardsiella tarda, over 8 µg/mL; against E. coli JW5503 (deltolC) it was 2 µg/mL (≈ 4.29 µM); in the assay on E. coli MG1655 (read-out: MIC), over 8 µg/mL; in assay [1], over 8 µg/mL; in [2] it was over 8 µg/mL. In addition, the MIC in the assay with Shigella flexneri is over 8 µg/mL; in assay [3] (read-out: MIC), 8 µg/mL (≈ 17.1 µM); in assay [4], 2 µg/mL (≈ 4.29 µM); in [5], over 8 µg/mL; with Streptococcus agalactiae it was over 8 µg/mL; against Streptococcus pyogenes, over 8 µg/mL.
For `N#Cc1cccc(S(=O)(=O)N[C@@H]2CCN(Cc3ccc(-c4cncnc4)cc3)C2)c1` [Compound 22], the MIC is over 8 µg/mL with E. coli BW25113 (read-out: MIC); over 8 µg/mL in the assay with Edwardsiella tarda; 8 µg/mL (≈ 19.1 µM) against E. coli JW5503 (deltolC); over 8 µg/mL with E. coli MG1655 (read-out: MIC); over 8 µg/mL in [1]; over 8 µg/mL in assay [2]. For the same molecule, the MIC (against Shigella flexneri; in [3] (read-out: MIC); in assay [4]; in assay [5]; against Streptococcus agalactiae; against Streptococcus pyogenes) was over 8 µg/mL in each case.

For the origin of these results see US10253039B2, “Inhibitors of bacterial DNA gyrase with efficacy against gram-negative bacteria” (priority 2014, dated 2019).
